Test [1] has as its target T1, MtEccC2-ATPase3 (Mycobacterium tuberculosis, UniProt O05450).
T1 construct: gene eccC2

Test [2] deals with T2, MtEccC5-ATPase3 (Mycobacterium tuberculosis, UniProt P9WNA5).
T2 construct: gene eccC5

In test [3] the target is T3, MtEccC3-ATPase3 (Mycobacterium tuberculosis, UniProt P9WNA9).
T3 construct: gene eccC3
T3 sequence (P9WNA9 1060-1330): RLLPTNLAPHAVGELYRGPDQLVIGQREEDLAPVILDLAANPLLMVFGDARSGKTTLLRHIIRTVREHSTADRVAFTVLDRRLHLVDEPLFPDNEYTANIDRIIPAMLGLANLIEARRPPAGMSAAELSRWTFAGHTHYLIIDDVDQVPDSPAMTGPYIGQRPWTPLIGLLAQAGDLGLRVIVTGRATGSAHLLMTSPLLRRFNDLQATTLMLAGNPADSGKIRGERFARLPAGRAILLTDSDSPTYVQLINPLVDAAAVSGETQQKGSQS

T1 sequence (O05450 1127-1396 limits assumed): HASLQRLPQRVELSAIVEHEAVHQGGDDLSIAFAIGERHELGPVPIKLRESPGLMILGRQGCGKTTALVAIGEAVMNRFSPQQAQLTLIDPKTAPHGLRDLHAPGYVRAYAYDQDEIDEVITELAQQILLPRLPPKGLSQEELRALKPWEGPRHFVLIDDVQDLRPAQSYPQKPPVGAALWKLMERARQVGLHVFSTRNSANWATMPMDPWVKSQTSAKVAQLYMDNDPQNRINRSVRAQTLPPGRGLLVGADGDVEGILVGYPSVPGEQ
T2 sequence (P9WNA5 1125-1391): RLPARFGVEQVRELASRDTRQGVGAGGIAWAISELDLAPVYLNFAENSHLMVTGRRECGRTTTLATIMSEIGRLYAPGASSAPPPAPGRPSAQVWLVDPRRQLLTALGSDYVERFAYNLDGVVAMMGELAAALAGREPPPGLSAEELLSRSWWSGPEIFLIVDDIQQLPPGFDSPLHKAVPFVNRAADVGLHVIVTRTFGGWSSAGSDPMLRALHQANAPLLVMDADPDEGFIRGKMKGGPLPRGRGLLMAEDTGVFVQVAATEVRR

`Nc1ncnc2c1ncn2[C@@H]1O[C@H](COP(=O)(O)OP(=O)(O)OP(=O)(O)O)[C@@H](O)[C@H]1O` [ATP]: the X-ray crystal structure entry in test [1] is “In our structures, ATP and a magnesium ion bind to the nucleotide-binding site”; in test [2], “In our structures, ATP and a magnesium ion bind to the nucleotide-binding site”; in test [3] it was “In our structures, ATP and a magnesium ion bind to the nucleotide-binding site”.

Values taken from article PMC6954902 (Protein & Cell, 2019).
